Entries after “also recorded” stand apart in the source; their conditions may differ. Like-named read-outs stand apart in the source and are kept apart here.
Key:
[1] = target: recombinant human VAP-1 (Homo sapiens, UniProt Q16853); test: Substrate saturation curves, fluorometric assay detecting hydrogen peroxide; settings: recombinant human VAP-1, n = 1 plate
Protocol: (§2) The enzymatic activity of recombinant VAP-1 and inhibitor potency was determined using a variation of the fluorometric assay for measuring hydrogen peroxide formation [22]. Briefly, the assay measures the H2O2 generated during the oxidative deamination of an amine substrate (BA for inhibition purposes) by converting Amplex® Red to the fluorescent product, resorufin, via horseradish peroxidase (HRP). […] Stock solutions of Amplex Red (1 mM), HRP (10 U/mL), the substrates (200 μM BA for inhibition), and inhibitor were prepared in reaction buffer and added to the appropriate wells, that the final concentration in each well was 0.05 mM Amplex Red, 0.5 U/mL HRP, and 50 μM BA (saturating condition) in a total reaction volume of 0.1 mL.
(§3) Standard curves were prepared for each plate by serially diluting H2O2 in reaction buffer with equivalent concentrations of Amplex Red and HRP. A 10 μM solution of resorufin was prepared in reaction buffer and was dispensed in duplicate as the positive control for maximum fluorescence. Plates were incubated for 30 minutes at 37°C, protected from light under foil to minimize the resorufin artifactually formed when Amplex Red is exposed to light [28]. The plate was read at 530/35 emission and 590/35 excitation. The mean fluorescence of the background was subtracted from the mean fluorescence of the inhibitor concentration in the presence of BA. The percent control was calculated using equation (1). […] (1) %control=average fluorescence with inhibitor−background/average fluorescence of reaction without inhibitor−background×100, (2) %inhibition=100−%control.
(§4) Both substrates were incubated with recombinant VAP-1 in triplicate on three separate plates.

[2] = target: recombinant rat VAP-1 (Rattus norvegicus, UniProt O08590); test: as above; settings: recombinant rat VAP-1, n = 1 plate
Protocol: as §2, §3, §4

[3] = target: recombinant mouse VAP-1 (Mus musculus, UniProt O70423); test: as above; settings: recombinant mouse VAP-1, n = 1 plate
Protocol: as §2, §3, §4

[4] = test system: VAP-1; set-up: method as in PMID 16570912; settings: cell-based inhibition assay; cited from earlier work
[5] = target: T1, recombinant mouse VAP-1 (rmVAP-1) (Mus musculus, UniProt O70423); test: VAP-1 oxidative deamination fluorescence assay (Amplex Red, benzylamine), inhibition
T1 sequence (O70423 28-765 limits assumed): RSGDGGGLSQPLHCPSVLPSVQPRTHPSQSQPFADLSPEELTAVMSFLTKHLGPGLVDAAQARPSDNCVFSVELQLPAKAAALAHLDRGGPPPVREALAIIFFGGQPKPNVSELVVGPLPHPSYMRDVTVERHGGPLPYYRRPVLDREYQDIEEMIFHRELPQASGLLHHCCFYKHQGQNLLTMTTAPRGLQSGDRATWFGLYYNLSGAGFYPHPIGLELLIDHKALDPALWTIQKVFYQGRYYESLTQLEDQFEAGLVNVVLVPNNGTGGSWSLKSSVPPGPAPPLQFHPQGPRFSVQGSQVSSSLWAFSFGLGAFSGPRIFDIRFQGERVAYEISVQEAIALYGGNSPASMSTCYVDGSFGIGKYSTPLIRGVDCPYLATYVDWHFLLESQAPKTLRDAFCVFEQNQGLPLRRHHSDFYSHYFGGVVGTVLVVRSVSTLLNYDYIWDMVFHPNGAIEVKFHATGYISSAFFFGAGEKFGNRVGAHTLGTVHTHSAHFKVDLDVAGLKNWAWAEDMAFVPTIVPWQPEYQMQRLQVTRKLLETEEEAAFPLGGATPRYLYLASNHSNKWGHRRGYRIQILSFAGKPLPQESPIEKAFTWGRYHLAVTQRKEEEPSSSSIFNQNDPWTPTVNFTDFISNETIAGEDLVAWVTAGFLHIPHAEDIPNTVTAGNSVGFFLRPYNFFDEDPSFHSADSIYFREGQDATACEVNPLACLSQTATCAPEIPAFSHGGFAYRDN

[6] = target: T2, recombinant rat VAP-1 (rrVAP-1) (Rattus norvegicus, UniProt O08590); test: as above; assay type: biochemical; settings: recombinant rat VAP-1, 50 μM BA, 30 minutes at 37°C, three separate determinations; read-out: IC50 mean ± SD, Rat
T2 construct: purchased R&D Systems (custom product); host or cells: Spodoptera frugiperda Sf21 (baculovirus)
T2 sequence (O08590 28-763 limits assumed): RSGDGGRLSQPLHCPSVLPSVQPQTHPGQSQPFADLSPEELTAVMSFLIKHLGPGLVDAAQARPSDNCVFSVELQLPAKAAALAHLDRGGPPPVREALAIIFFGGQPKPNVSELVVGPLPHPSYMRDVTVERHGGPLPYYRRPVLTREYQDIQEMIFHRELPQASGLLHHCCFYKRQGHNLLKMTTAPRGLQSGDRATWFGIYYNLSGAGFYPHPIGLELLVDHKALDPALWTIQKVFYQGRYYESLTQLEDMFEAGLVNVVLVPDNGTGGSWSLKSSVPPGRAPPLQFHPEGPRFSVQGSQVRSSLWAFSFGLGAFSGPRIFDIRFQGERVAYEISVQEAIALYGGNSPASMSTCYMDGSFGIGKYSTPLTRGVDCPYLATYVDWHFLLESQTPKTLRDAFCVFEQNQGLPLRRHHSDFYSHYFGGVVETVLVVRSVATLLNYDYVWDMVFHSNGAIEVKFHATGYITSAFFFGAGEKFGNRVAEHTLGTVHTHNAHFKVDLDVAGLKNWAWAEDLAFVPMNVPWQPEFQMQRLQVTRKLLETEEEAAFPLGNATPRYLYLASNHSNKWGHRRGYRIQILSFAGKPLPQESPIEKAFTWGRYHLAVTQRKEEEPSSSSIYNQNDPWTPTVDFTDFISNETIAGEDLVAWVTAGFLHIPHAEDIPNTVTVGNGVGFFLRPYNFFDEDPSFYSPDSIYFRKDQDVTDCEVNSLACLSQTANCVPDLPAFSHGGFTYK
Protocol: (§1) Data processing was performed using Prism software.

[7] = target: T3, recombinant human VAP-1 (rhVAP-1) (Homo sapiens, UniProt Q16853); test: as above; assay type: biochemical; settings: for IC50: recombinant human VAP-1, 50 μM BA, 30 minutes at 37°C, three separate determinations, read-out: IC50 mean ± SD, Human
T3 construct: purchased R&D Systems 3957-AO-010; host or cells: Spodoptera frugiperda Sf21 (baculovirus)
T3 sequence (Q16853 27-763 limits assumed): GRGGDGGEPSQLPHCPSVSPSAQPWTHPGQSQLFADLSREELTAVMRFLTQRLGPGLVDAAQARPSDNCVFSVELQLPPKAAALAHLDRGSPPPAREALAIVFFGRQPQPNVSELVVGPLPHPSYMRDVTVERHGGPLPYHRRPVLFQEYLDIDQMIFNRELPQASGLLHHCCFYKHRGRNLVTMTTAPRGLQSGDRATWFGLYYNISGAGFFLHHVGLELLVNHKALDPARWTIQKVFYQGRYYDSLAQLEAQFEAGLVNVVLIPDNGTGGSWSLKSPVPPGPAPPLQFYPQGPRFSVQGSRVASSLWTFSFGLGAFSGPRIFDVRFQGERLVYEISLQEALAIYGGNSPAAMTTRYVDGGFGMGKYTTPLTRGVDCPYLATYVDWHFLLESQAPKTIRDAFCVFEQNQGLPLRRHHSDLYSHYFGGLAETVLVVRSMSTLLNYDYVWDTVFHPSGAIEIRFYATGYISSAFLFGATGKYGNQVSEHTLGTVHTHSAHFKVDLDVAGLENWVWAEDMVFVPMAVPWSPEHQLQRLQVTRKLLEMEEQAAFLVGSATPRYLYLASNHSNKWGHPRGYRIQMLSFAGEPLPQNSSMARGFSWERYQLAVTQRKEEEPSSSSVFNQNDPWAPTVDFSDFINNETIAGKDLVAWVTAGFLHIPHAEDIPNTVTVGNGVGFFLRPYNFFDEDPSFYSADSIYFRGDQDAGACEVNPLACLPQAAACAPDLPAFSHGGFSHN
Protocol: as §1

[8] = test system: lysyl oxidase (LOX); set-up: method as in PMID 17872591, PMID 17452500, PMID 18469024; settings: cited from earlier work
[9] = test system: VAP-1 in in vitro tissue preparations; set-up: method as in PMID 8920635; settings: humans; cited from earlier work
[10] = test system: VAP-1 in bovine lung microsomes; set-up: method as in PMID 8694842; settings: coincubated with benzylamine; cited from earlier work
[11] = test system: rat VAP-1; set-up: method as in PMID 23540955; settings: recombinant enzyme suspension from CHO cells expressing rat VAP-1, 14C-BA; read-out: IC50 previously reported, Rat; cited from earlier work
[12] = test system: STZ-induced diabetic rats; set-up: method as in PMID 23664164; settings: administered subcutaneously; cited from earlier work
[13] = test system: human VAP-1; set-up: method as in PMID 23540955; settings: recombinant enzyme suspension from CHO cells expressing human VAP-1, 14C-BA; read-out: IC50 previously reported, Human; cited from earlier work
[14] = test system: rhVAP-1; set-up: method as in PMID 23664164; settings: recombinant human VAP-1; cited from earlier work
[15] = test system: rat and mouse disease models; settings: various rat and mouse disease models; cited from earlier work
[16] = target: human VAP-1 recombinant enzymes; settings: read-out: IC50 previously reported, Human, LC-MS/MS benzaldehyde formation; cited from earlier work
[17] = test system: VAP-1 from rat aorta homogenates; settings: read-out: IC50 previously reported, Rat, 14C-BA; cited from earlier work
[18] = test system: human VAP-1 from aorta membrane preparations; settings: read-out: IC50 previously reported, Human, LC-MS/MS benzaldehyde formation; cited from earlier work
[19] = test system: VAP-1 from human umbilical cord homogenates; set-up: method as in PMID 16081681; settings: radiolabeled substrate, read-out: IC50 previously reported, Human; cited from earlier work
[20] = test system: rats; set-up: method as in PMID 16081681, PMID 23263543; settings: oral administration to rats, carrageenan footpad model; cited from earlier work
[21] = test system: mice; set-up: method as in PMID 16081681, PMID 23263543; settings: oral administration to mice, ulcerative colitis and LPS-induced endotoxemia; cited from earlier work
[22] = test system: VAP-1 from rat lung homogenates; set-up: method as in PMID 16081681; settings: radiolabeled substrate, read-out: IC50 previously reported, Rat; cited from earlier work

In the case of `NCCc1c[nH]c2ccccc12` [tryptamine], the “Substrate turnover (in words)” value [1] is reported as “low reaction rates”, the “Substrate turnover (in words)” value [2] is reported as “low reaction rates” and the “Substrate turnover (in words)” value [3] is reported as “low reaction rates”.

For `NNC(N)=O` [Semiarid (SEM), semicarbazide], the “Semicarbazide required for inhibition relative to LJP-1207” value [4] is given as 100 x, the IC50 ([5]; read-out: IC50 mean ± SD, Mouse, recombinant mouse VAP-1, 50 μM BA, 30 minutes at 37°C, three separate determinations) is given as 295000 ± 29000 nM and the IC50 [6] is given as 993000 ± 1.22e+06 nM. For the same compound, the “Difference in IC50 between human and rat VAP-1” value ([7]; 85.9 μM vs. 993 μM) was roughly 10 fold, the IC50 [7] was 85900 ± 12900 nM and the “Inhibition of lysyl oxidase (in words)” value [8] was “inhibits”.

In the case of `NCCc1ccc(O)cc1` [TYR, tyramine], the “Substrate turnover (in words)” value [3] is listed as “low reaction rates; also recorded: not a substrate” and the Km [9] is listed as 10.5 mM.

For `NNc1ccccc1` [phenylhydrazine], the “Potency relative to semicarbazide” value [10] is listed as “over 100 times”.

`CC(=O)Nc1nc(CCc2ccc(NC(=N)N)cc2)c(Cc2ccc(S(C)(=O)=O)cc2)s1` [Astellas compound 35c] gave an IC50 [5] of 414 ± 113 nM, an IC50 [6] of 50.4 ± 6.8 nM and an IC50 [7] of 22.5 ± 6.9 nM. For the same compound, the IC50 [11] was 72 nM, the Ocular permeability [12] was “significantly reduced ocular permeability” and the IC50 [13] was 20 nM. The IC50 [14] was 230 nM.

In the case of `CC(C)(C)NC(=O)c1ccc(OC/C(=C/F)CN)cc1` [PXS-4728A], the “Leukocyte adhesion and migration to sites of lung inflammation” value [15] is given as “reduced leukocyte adhesion and migration”.

In the case of `NNCCc1ccccc1` [phenelzine], the “Potency relative to semicarbazide” value [10] is given as “over 100 times”.

In the case of `NCCc1ccccc1` [Phenylethylamine (PEA), phenylethylamine], the Km [9] is given as 7.9 mM.

In the case of `NNc1nncc2ccccc12` [Hydralazine (HYD), hydralazine], the IC50 [16] is listed as 26500 nM, the IC50 [17] is listed as 25 nM and the IC50 [5] is listed as 1180 ± 92 nM. The IC50 [6] was 3130 ± 123 nM, the IC50 [7] was 7750 ± 2320 nM and the IC50 [18] was 6400 nM. For the same compound, the “Potency relative to semicarbazide” value [10] was “twenty times more potent”.

For `C=C(CNN)c1ccccc1` [LJP-1207], the IC50 [19] is given as 17 nM, the IC50 [5] is given as 102 ± 47.8 nM and the IC50 [6] is given as 120 ± 6.7 nM. The IC50 [7] was 252 ± 22.5 nM, the Reduction of inflammation [20] was “effective in reducing inflammation” and the Reduction of inflammation [21] was “effective in reducing inflammation”. For the same compound, the IC50 [22] was 7.5 nM.

Source: PMC7201828, “Comparison of Inhibitor and Substrate Selectivity between Rodent and Human Vascular Adhesion Protein-1” (Mediators of Inflammation, 2020)
